In patent US8992603B2, “Coated devices and method of making coated devices that reduce smooth muscle cell proliferation and platelet activity” (Nanocopoeia, Inc., priority 2007, dated 2015):
Read-outs that look alike come from different tables or passages of the source.

Legend:
[1] = test system: mouse carotid artery injury model; experiment: mouse carotid artery injury model, neointimal area; assay type: in vivo; conditions: female B6.129 mice, high fat diet, oral 50 mg/kg resveratrol, 10 mg/kg quercetin or both, 2 weeks before and 2 weeks after injury
Method: FIG. 9 is a bar chart showing the effects of oral administration with 50 mg/kg resveratrol (RESV), 10 mg/kg quercetin (QUER), or resveratrol plus quercetin on neointimal areas in mice subjected to the carotid artery injury procedure. Values represent means+SEM. […] Neointimal area was determined by subtracting the luminal area from the area encircled by the internal elastic lamina. Determining whether quercetin potentiates the vascular protective effects of resveratrol in vivo, utilizing a mouse carotid artery injury model. Female B6.129 mice were administered a high fat diet, in some cases mixed together with 50 mg/kg resveratrol (RESV), 10 mg/kg quercetin (QUER), or resveratrol plus quercetin, for 2 weeks. The carotid artery injury procedure was conducted and the animals were fed the high fat diet plus polyphenols for an additional two weeks. The animals were then sacrificed, and the carotid arteries were excised and assessed for neointimal areas.

[2] = test system: platelets; experiment: platelet activation, tritiated serotonin release after ADP; assay type: cell-based, human; conditions: 3 h, 5 μM ADP
Method: Values represent means+/−standard error.
To determine the efficacy of these compounds in reducing platelet activation, platelets isolated from healthy, male donors were incubated with resveratrol, quercetin, or resveratrol plus quercetin. The doses were selected based on prior studies.

[3] = test system: platelet activation; experiment: thromboxane B2 levels in mouse carotid artery injury model; assay type: in vivo; conditions: 4 weeks oral, 50 mg/kg resveratrol, 10 mg/kg quercetin or both, B6.129 mice
Method: Plasma levels of thromboxane B2 (TBX2), a known marker for platelet activation, were assessed.

[4] = test system: macrophages; experiment: LPS-stimulated macrophage activation, iNOS protein; assay type: cell-based
Method: To test the efficacy of a resveratrol/quercetin combination in inhibiting the activation of macrophages, effects of polyphenol treatments either alone or in combination with quercetin were assessed in cultures of lipopolysaccharide (LPS) stimulated macrophages. Macrophage activation was determined by increases in protein levels of inducible nitric oxide synthase (iNOS) and by levels of reactive oxygen species (ROS).

[5] = test system: macrophages; experiment: LPS-stimulated macrophage activation, nitric oxide release, isobologram; assay type: cell-based; conditions: CalcuSyn, read-out: IC50 macrophage activation, individual treatments
Method: Macrophages were incubated with differing dose ratios of resveratrol:quercetin and were stimulated with LPS. Activation was assessed as increases in nitric oxide release. The IC50's for each dose ratio were calculated using CaluSyn software and were used to plot the isobologram. The line depicted above indicates the point at which additive responses are observed (C1=1). Points lying above the line indicate antagonism, whereas points below the line represent synergism.
Isobolograms for the determination of synergistic dose ratios for a resveratrol/quercetin combination. To determine the dose ratios for achieving maximal synergistic effects, activation in LPS-stimulated cells macrophages incubated with constant dose ratios of resveratrol and quercetin was measured. The IC50 for each dose ratio was calculated using CalcuSyn software, and these concentrations were used to construct an isobologram (FIG. 13). […] Briefly, CI=1 denotes additive effects, CI>1 denotes antagonism, and CI<1 indicates synergism.

[6] = test system: VSMC; experiment: BrdU proliferation assay of VSMC with drug-eluting flats; assay type: cell-based; conditions: 48 hours elution
Method: Bare metal flats coated with resveratrol—(FIG. 17A) or quercetin—(FIG. 17B) containing arbIBS of either a closed or an open morphology were incubated in semi-permeable transwell inserts in plates containing VSMC. The bromodeoxyuridine (BrdU) incorporation assay for cell proliferation was conducted after 48 h of drug elution. […] The polyisobutylene-polystyrene triblock copolymers coated flats containing resveratrol or quercetin were incubated in semi-permeable transwell inserts in plates containing VSMC.

[7] = cited from earlier work
[8] = test system: VSMC; experiment: VSMC proliferation (DNA synthesis, cell number); assay type: cell-based; conditions: Rattus norvegicus
[9] = resveratrol release from polymer-coated flats (HPLC); assay type: physicochemical
Method: Polymer coated flats were incubated in medium at 37° C. for 28 d. Resveratrol concentration in the medium was assessed at 2 d intervals using high performance liquid chromatography. The data are expressed as means+/−standard error for cumulative release in micromolar concentrations (FIG. 18A) compared to a percent of total drug loaded (FIG. 18B).
Determination of resveratrol release was performed using reversed phase high performance liquid chromatography (HPLC) coupled to a 4-channel Coularray electrochemical detector run at 590, 660, 730, and 800 mV. […] Establishing biocompatibility is a critical step in the development of the stent models.

[10] = test system: NFκB; experiment: NFκB activation in vascular smooth muscle cells; assay type: cell-based
Excerpt: FIG. 3 is a bar chart showing the effect of resveratrol on NFκB activation in vascular smooth muscle cells

[11] = target: T1, ER-alpha (Homo sapiens, UniProt P03372); conditions: same binding site as estradiol; cited from earlier work
T1 sequence (P03372 1-595): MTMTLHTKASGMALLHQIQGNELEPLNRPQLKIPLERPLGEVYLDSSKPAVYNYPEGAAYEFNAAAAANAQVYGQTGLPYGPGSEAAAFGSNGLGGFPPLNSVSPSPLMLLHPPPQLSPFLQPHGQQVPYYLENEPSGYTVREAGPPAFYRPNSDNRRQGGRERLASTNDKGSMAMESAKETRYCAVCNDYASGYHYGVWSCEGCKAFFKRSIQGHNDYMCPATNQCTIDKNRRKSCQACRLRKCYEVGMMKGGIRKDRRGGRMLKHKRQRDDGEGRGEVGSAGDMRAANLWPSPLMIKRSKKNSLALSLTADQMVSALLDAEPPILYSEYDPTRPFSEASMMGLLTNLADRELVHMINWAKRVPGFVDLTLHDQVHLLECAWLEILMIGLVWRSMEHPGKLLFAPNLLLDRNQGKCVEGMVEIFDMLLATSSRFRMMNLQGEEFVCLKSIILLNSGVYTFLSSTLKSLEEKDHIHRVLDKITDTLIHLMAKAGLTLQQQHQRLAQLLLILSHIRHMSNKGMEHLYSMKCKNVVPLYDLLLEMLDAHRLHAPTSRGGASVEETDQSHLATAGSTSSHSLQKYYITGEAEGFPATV

Compound: O=c1c(O)c(-c2ccc(O)c(O)c2)oc2cc(O)cc(O)c12 [quercetin, 2-(3,4-dihydroxyphenyl)-3,5,7-trihydroxy-4H-1-benzopyran-4-one]
- neointimal area [1]: no significant effect
- reduction of serotonin release ([2]; 10-15 μM quercetin): 40-50%
- reduction of plasma TXB2 levels [3]: 40%
- reduction of iNOS protein ([4]; 10 μM quercetin): ~75%
- reduction of iNOS protein ([4]; 15 μM quercetin): ~90%
- IC50 [5]: 2.4 µM
- inhibition of VSMC proliferation ([6]; 75 μg/cm^2, particulate (open) or smooth (closed) matrix): significantly inhibited proliferation
- solubility in water [7]: practically insoluble

Compound: Oc1ccc(C=Cc2cc(O)cc(O)c2)cc1 [resveratrol]
- neointimal area [1]: dramatically reduced
- EC50 ([8]; read-out: EC50 for inhibiting DNA synthesis): 18 µM
- EC50 ([8]; read-out: EC50 for reducing numbers of cells): 25 µM
- reduction of serotonin release ([2]; 18 μM resveratrol): ~60%
- reduction of plasma TXB2 levels [3]: no significant effect
- reduction of iNOS protein levels ([4]; 18 μM resveratrol): ~25%
- IC50 [5]: 3.5 µM
- inhibition of VSMC proliferation ([6]; smooth (closed) matrix, 100 μg/cm^2 loading): significantly inhibited proliferation
- total drug loaded that had eluted ([9]; at 28 days): 5-10%
- eluted concentration of resveratrol ([9]; medium 37° C., 28 d): low micromolar concentrations
- release from 100 mg/cm^2 coated flat relative to 50 mg/cm^2-coated flat ([9]; regardless of morphology, medium 37° C.): approximately 4 fold
- inhibition of NFκB activation [10]: very potently
- binding affinity [11]: lower binding affinity than estradiol
